Reference: US20150018301A1, “LRRK-2-Mediated Neuronal Toxicity” (THE JOHNS HOPKINS UNIVERSITY, priority 2009, published 2015)

Legend:
[1] = biological target: T1, LRRK2 WT (Homo sapiens, UniProt Q5S007); test: In vitro kinase assay: LRRK2 autophosphorylation; format: biochemical; details: for effect on WT LRRK2 autophosphorylation: dose-response; for IC50: Table 2, mean of three experiments; for LRRK2 autophosphorylation Average ± SEM: compound 16 μM, phosphorylation normalized to absence of compound, mean ± S.E.M. of three experiments; for effect on LRRK2 autophosphorylation: screen at 16 μM
T1 sequence (Q5S007 whole entry): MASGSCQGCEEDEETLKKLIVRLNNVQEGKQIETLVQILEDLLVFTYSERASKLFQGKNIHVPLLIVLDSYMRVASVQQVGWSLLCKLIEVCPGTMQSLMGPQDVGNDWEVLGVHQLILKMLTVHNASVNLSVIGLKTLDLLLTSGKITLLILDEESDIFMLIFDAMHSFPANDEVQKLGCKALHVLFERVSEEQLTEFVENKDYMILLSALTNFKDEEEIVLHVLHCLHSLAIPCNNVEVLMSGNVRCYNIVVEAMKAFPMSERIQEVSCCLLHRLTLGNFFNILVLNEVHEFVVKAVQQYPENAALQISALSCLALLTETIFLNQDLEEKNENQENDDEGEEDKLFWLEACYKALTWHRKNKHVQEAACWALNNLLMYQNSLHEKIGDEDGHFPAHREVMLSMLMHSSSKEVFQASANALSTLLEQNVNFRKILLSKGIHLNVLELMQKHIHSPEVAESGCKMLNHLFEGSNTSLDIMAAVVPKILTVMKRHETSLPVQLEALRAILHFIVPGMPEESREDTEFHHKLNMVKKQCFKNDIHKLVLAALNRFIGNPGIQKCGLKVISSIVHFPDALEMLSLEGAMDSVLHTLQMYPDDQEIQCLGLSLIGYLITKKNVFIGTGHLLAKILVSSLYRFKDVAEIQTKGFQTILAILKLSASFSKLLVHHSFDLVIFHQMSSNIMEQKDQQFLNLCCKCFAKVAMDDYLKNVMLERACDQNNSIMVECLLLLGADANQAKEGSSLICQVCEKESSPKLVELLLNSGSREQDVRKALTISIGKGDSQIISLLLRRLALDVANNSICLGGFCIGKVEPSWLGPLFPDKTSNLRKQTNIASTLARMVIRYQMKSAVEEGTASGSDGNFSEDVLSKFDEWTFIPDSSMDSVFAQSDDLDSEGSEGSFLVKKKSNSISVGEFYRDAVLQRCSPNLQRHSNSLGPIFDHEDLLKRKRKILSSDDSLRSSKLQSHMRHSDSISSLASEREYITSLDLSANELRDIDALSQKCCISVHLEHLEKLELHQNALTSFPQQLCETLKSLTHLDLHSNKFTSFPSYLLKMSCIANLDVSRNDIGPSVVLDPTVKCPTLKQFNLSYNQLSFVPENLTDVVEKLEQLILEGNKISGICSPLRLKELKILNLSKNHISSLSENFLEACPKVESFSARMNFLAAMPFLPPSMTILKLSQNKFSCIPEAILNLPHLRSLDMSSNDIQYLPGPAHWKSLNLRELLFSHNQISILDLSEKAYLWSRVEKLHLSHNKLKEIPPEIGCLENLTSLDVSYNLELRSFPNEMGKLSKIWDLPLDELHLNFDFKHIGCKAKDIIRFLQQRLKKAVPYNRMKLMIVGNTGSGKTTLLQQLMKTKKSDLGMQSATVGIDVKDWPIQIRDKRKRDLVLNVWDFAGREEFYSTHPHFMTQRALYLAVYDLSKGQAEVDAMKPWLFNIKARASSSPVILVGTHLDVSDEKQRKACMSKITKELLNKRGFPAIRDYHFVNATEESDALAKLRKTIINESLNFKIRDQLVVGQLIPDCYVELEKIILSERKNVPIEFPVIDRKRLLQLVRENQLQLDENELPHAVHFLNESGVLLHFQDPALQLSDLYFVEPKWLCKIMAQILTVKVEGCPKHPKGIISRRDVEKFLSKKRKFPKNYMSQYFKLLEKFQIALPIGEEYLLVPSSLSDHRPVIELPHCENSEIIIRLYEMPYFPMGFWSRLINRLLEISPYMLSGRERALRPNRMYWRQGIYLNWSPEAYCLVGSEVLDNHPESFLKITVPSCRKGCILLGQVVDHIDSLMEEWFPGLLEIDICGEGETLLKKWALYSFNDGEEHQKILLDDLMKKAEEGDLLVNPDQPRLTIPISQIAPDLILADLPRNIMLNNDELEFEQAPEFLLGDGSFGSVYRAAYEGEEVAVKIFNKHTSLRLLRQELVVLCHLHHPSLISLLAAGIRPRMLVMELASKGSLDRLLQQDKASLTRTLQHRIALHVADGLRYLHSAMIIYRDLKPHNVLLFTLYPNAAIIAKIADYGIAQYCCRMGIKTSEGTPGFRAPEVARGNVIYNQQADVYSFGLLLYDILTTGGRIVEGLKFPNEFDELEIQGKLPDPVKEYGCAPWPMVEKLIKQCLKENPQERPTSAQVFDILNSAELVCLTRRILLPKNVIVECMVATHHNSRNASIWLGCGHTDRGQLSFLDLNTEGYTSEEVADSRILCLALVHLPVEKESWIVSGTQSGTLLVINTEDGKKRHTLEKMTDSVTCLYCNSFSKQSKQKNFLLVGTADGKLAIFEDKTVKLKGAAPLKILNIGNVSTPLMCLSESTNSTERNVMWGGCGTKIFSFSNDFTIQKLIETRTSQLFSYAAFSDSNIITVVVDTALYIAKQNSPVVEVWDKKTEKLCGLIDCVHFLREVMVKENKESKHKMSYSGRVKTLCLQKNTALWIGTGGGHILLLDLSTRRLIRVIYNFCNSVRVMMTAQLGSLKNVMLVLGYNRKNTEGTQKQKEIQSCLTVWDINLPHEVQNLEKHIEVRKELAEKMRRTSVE

[2] = biological target: T1, LRRK2 WT; test: In vitro kinase assay: LRRK2-mediated MBP phosphorylation; format: biochemical; details: for effect on WT LRRK2 MBP phosphorylation: dose-response; for IC50: mean of three experiments; for MBP phosphorylation Average ± SEM: compound 16 μM, 30° C., 15 min, normalized to absence of compound, mean ± S.E.M. of three experiments; for effect on LRRK2-mediated phosphorylation of MBP: screen at 16 μM
[3] = biological target: T2, LRRK2 G2019S (Homo sapiens, UniProt Q5S007, G2019S); test: In vitro kinase assay: G2019S LRRK2 autophosphorylation; format: biochemical; details: for effect on G2019S LRRK2 autophosphorylation: dose-response; for IC50: Table 2, mean of three experiments
T2 sequence (Q5S007 whole entry G2019S): as the sequence (Q5S007 whole entry) above, with G2019S counted along it
Procedure: (§1) Transfection was performed by using Fugene HD reagent (Roche Applied Science) according to the manufacturer's instruction. For purification of recombinant LRRK1 and LRRK2 proteins, ACTA Purifier (GE Healthcare) FPLC system was used.
(§2) Resulting lysates were rotated at 4° C. for 30 min followed by centrifugation at 20,000×g for 15 min. The supernatants were injected into a GSTrap FF column pre-equilibrated with PBS at 0.5. mL/min flow after filtration using a 0.2 μm syringe filter (Corning). The bound proteins were eluted with buffer containing 10 mM GSH (Sigma), 150 mM NaCl, and 50 mM Tris-HCl (pH 8.0).
(§3) The in vitro kinase assay was performed as previously described. […] Recombinant LRRK2 and MBP or CST-4E-BP1 were combined before the kinase reaction. LRRK2 autophosphorylation is LRRK2 itself phosphorylation and MBP or GST-4E-BP1 phosphorylation is induced by LRRK2. After the kinase reaction, combined LRRK2 and MBP or GST-4E-BP1 were loaded on SDSPAGE and phosphorylated LRRK2 and MBP or GST-4E-BP1 could be detected separately an a single gel. Recombinant proteins and inhibitors were incubated at 30° C. in kinase assay buffer containing 20 mM Hepes (pH 7.4), 5 mM EGTA, and 20 mM β-glycerol phosphate. 0.5 μg MBP (Upstate) or 0.5 μg GST-4B-BP1, 50 μM ATP (Sigma), 20 mM MgCl2, and 1 μCi [γ-32P] ATP (PerkinElmer) was added after 5 min. The reaction was performed at 30° C. to reduce non-specific 32P incorporation for 15 min and terminated by the addition of 5×Laemmili sample buffer. […] Gels were stained by coomassie brilliant blue after fixation with 10% acetic acid and 40% methanol and then exposed to a Phosphoimager. Data were analyzed by ImageQuant 6.0 software.
(§4) To calculate the IC50 value, a dose-response curve was constructed and non-linear regression analysis using the equation for a sigmoid plot.

[4] = biological target: T2, LRRK2 G2019S; test: In vitro kinase assay: G2019S LRRK2-mediated MBP phosphorylation; format: biochemical; details: for effect on G2019S LRRK2 MBP phosphorylation: dose-response; for IC50: Table 2, mean of three experiments
Procedure: as §1, §2, §3, §4

[5] = biological target: T3, LRRK1 WT (Homo sapiens, UniProt Q38SD2); test: In vitro kinase assay: LRRK1 autophosphorylation; format: biochemical; details: for IC50: Table 3, mean of three experiments
T3 sequence (Q38SD2 whole entry): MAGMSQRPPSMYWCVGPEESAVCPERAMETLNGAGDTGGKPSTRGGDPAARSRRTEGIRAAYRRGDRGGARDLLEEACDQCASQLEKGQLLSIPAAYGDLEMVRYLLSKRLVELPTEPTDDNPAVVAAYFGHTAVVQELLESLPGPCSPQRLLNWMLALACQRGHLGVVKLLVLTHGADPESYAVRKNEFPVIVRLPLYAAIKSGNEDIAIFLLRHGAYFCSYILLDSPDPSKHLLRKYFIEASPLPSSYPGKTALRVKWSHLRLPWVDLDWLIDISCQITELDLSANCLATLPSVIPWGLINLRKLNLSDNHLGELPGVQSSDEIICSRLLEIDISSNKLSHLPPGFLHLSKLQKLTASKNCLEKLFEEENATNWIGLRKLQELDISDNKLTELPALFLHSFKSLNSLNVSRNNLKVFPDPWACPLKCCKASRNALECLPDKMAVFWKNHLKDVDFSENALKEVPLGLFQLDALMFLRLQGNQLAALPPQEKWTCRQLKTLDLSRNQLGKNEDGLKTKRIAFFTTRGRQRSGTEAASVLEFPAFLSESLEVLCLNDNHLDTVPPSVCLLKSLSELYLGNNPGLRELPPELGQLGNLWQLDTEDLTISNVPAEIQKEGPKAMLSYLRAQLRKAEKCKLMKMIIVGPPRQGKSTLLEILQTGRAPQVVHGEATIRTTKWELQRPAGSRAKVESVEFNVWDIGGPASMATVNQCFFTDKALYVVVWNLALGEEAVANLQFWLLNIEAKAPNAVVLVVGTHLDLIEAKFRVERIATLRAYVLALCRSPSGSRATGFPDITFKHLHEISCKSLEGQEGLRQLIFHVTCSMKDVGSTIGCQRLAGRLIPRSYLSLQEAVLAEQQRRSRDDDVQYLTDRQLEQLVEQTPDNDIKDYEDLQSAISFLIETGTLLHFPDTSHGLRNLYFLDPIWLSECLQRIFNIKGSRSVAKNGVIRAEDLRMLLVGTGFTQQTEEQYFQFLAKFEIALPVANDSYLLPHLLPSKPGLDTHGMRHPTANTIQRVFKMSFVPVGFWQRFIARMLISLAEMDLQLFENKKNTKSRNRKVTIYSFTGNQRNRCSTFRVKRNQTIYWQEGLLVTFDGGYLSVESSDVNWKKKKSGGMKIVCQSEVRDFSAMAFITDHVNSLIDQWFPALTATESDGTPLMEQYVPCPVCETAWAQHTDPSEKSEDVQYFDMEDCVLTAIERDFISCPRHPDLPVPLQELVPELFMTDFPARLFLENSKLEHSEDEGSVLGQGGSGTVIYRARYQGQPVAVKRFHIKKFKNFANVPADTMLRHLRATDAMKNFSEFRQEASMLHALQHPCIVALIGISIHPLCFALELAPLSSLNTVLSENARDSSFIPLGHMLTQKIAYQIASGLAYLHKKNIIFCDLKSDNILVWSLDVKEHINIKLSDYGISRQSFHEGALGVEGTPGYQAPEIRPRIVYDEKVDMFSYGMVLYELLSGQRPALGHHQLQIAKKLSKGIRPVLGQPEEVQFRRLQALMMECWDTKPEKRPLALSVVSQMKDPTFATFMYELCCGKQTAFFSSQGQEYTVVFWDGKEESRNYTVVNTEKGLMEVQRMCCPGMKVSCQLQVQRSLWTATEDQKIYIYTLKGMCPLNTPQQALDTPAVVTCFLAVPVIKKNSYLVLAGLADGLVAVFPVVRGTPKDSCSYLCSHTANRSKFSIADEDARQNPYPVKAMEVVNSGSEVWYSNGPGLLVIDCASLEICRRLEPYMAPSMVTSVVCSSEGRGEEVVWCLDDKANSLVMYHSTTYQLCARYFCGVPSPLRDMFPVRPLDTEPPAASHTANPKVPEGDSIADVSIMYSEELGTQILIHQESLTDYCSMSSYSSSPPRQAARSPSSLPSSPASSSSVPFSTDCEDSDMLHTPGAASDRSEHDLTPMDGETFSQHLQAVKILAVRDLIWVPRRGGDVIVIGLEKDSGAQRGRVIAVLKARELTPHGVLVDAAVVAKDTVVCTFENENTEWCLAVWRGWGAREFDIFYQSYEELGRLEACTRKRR

[6] = biological target: T3, LRRK1 WT; test: In vitro kinase assay: LRRK1-mediated MBP phosphorylation; format: biochemical; details: for IC50: Table 3, mean of three experiments
[7] = tested on: rat primary cortical neuronal cultures transfected with G2019S LRRK2; test: LRRK2-induced neuronal toxicity in primary cortical neuronal cultures (neurite shortening, TUNEL); format: cell-based; details: 0.5 μM
Procedure: Representative photomicrographs of each experimental group. LRRK2 and eGFP constructs were combined in a molar ratio of 10:1, respectively, and transfected by using of Lipofectamine 2000 (Invitrogen) at DIV (day in vitro) 14 into rat primary cortical neuronal cultures. Compounds (0.5 μM) were administrated at the time of transfection and continued until toxicity assessments. On DIV 16, images were collected on a Zeiss Automatic stage with Axiovision 6.0. (a) Low magnified photomicrographs; (b and c) High magnified photomicrographs. Scale bar=50 μm (a) and 10 μm (b and c);
Primary cortical neuronal cultures were prepared from gestational day 15 fetal rats as previously described. Gonzalez-Zulueta, M., et al. Manganese superoxide dismutase protects nNOS neurons from NMDA and nitric oxide-mediated neurotoxicity. J Neurosci 18, 2040-2055 (1998). All procedures used in this study were approved by the Johns Hopkins Medical Institute Animal Care Committee. Cell viability assays and DNA fragmentation (TUNEL assay) were performed as previously described. Smith, W. W., et al. Kinase activity of mutant LRRK2 mediates neuronal toxicity. Nat Neurosci 9, 1231-1233 (2006); West, A. B., et al. Parkinson's disease-associated mutations in LRRK2 link enhanced GTP-binding and kinase activities to neuronal toxicity. Hum Mol Genet 16, 223-232 (2007). The cortex was dissected, incubated for 15 min in 0.027% trypsin, and then transferred to modified Eagle's medium (MEM)/10% horse serum/10% fetal bovine serum/2 mM glutamine followed by trituration. Dissociated cells were plated at a density of 3-4×10^5 cells per well in polyornithine-coated plates. After 4 days the cells were treated with 10 μg of 5-fluoro-2′-deoxyuridine to prevent proliferation of nonneuronal cells. Cells were maintained in MEM/5% horse serum/2 mM glutamine in 8% CO2 incubator. The medium was changed twice weekly. For assessment of LRRK2-mediated neuronal injury, LRRK2 and eGFP constructs were combined in a molar ratio of 10:1, respectively, and transfected into neurons with Lipofectamine 2000 (Invitrogen) at DIV (day in vitro) 14. On DIV 16, images were collected on a Zeiss Automatic stage with Axiovision 6.0. Viable neurons were defined as having at least one smooth extension (neurite) with twice the length of the cell body. The percentage of eGFP-positive injured neurons in each experimental group relative to those neurons transfected with eGFP was calculated.

## Cc1ccc(NC(=O)c2cccc(N(C)C)c2)cc1NC(=O)c1ccc(O)cc1 [Inhibitor 53, ZM336372]
[1]
  effect on WT LRRK2 autophosphorylation: no effect
[2]
  effect on WT LRRK2 MBP phosphorylation: no effect
[3]
  effect on G2019S LRRK2 autophosphorylation: no effect
[4]
  effect on G2019S LRRK2 MBP phosphorylation: no effect
[5]
  effect on LRRK1 autophosphorylation: minimal to no effect
[6]
  effect on LRRK1 MBP phosphorylation: minimal to no effect
[7]
  G2019S LRRK2 toxicity: failed to inhibit

## O=C1Nc2ccccc2/C1=C1/Nc2ccccc2/C1=N\O [Inhibitor 70, Indirubin-3-monooxine]
[1]
  IC50: 1750 nM
  LRRK2 autophosphorylation Average ± SEM: 6.0 ± 6.5 % of control
  effect on WT LRRK2 autophosphorylation: inhibited
  effect on LRRK2 autophosphorylation: substantially inhibited
[2]; Table 2
  IC50: 4.83 µM
[2]; Table 3
  IC50: 4.83 µM
[2]
  MBP phosphorylation Average ± SEM: 33.1 ± 15.7 % of control
  effect on WT LRRK2 MBP phosphorylation: inhibited
  effect on LRRK2-mediated phosphorylation of MBP: substantially inhibited
[3]
  IC50: 380 nM
  effect on G2019S LRRK2 autophosphorylation: inhibited
[4]
  IC50: 1310 nM
  effect on G2019S LRRK2 MBP phosphorylation: inhibited
[5]
  effect on LRRK1 autophosphorylation: inhibited
  IC50: 790 nM
[6]
  effect on LRRK1 MBP phosphorylation: inhibited
  IC50: 3.1 µM
[7]
  G2019S LRRK2 cell death (TUNEL): attenuated
  G2019S LRRK2 cell injury (neurite shortening): attenuated

## O=C1Nc2ccc(I)cc2/C1=C/c1cc(Br)c(O)c(Br)c1 [Inhibitor 56, GW5074]
[1]
  IC50: 880 nM
  LRRK2 autophosphorylation Average ± SEM: 4.6 ± 2.9 % of control
  effect on LRRK2 autophosphorylation: substantially inhibited
[2]; Table 2
  IC50: 3.15 µM
[2]; Table 3
  IC50: 1.09 µM
[2]
  MBP phosphorylation Average ± SEM: 4.7 ± 4.1 % of control
  effect on LRRK2-mediated phosphorylation of MBP: substantially inhibited
[3]
  IC50: 220 nM
[4]
  IC50: 880 nM
[5]
  IC50: 730 nM
[6]
  IC50: 3.25 µM
[7]
  G2019S LRRK2 cell death (TUNEL): attenuated
  G2019S LRRK2 cell injury (neurite shortening): attenuated
